Patent publication US20200278355A1, “CONJUGATED PROTEINS AND USES THEREOF” (THE SCRIPPS RESEARCH INSTITUTE, priority 2017, published 2020)
Entries after “also recorded” stand apart in the source; their conditions may differ.

Tests used:
Format in all cases: cell-based, human
[1] = test system: CRY1, DEPDC1, and CPLX2 expression in KEAP1-mutant NSCLC cells (H460, H2122); test: Gene expression changes (RNA sequencing, qPCR) in KEAP1-mutant NSCLC cells; details: 12 h; for gene expression changes (CRY1, DEPDC1, CPLX2): KEAP1-mutant NSCLC cells
Procedure: FIG. 13A-FIG. 13E illustrate characterization of NR0B1 ligands in Keap1-mutant NSCLC cells. […] Top: Heat map depicting changes in gene expression between H460 cells expressing shNRF2, shNR0B1 or a control (shGFP) and those treated with vehicle (DMSO), BPK-29 or BPK-9 (30 μM, 12 h). Expression for each condition was first normalized to appropriate controls (shGFP or DMSO) and then normalized by row. Bottom: Overlap between gene sets regulated in BPK-29-treated vs shNR0B1 H460 cells. Gene set enrichment analysis (GSEA) was applied to all genes that were differentially expressed between shNR0B1-H460 cells and shGFP-H460 cells or between H460 cells treated with BPK-29 or DMSO. Genes were ranked based on their FDR. The FDR q-value was computed by GSEA on the C2.all collection and a cut off of FDR<0.05 was required for a gene set to be considered enriched. […] H460 (left) or H2009 (right) cells were treated with vehicle, BPK-29, or BPK-9 (25 μM, 12 h). Gene expression changes for CRY1, DEPDC1, and CPLX2 were determined by qPCR and data represents mean values+SD (n=4-10). […] Cells were treated with the vehicle, BPK-29, or BPK-9 (30 μM, 12 h). Gene expression changes for Cry1, DEPDC1, and CPLX2 were determined by qPCR and data represents mean values+SD (n=4-6). […] H460 cells were treated with vehicle or BPK-29 or BPK-9 at the indicated concentrations for 9 h. Protein expression was analyzed by immunoblotting. […] Top: H460 cells were treated with cycloheximide (100 μg/mL) for the indicated time points and NR0B1 protein content assessed by immunoblotting. […] NR0B1 protein content was determined following cycloheximide treatment and data were fit into a one-phase exponential decay model. […]
RNA was isolated by RNeasy Kit (Qiagen) and digested with DNase (Qiagen) from n=3 samples per condition (cells expressing shGFP, shNRF2_1, shNR0B1_1 or shSNW1_1 or treated with DMSO, 30 μM BPK-29 or 30 μM BPK-9). RNA integrity (RIN) numbers were determined using the Agilent TapeStation prior to library preparation. mRNA-seq libraries were prepared using the TruSeq RNA library preparation kit (version 2) according to the manufacturer's instructions (Illumina). Libraries were then quantified, pooled, and sequenced by single-end 50 base pairs using the Illumina HiSeq 2500 platform at the Salk Next-Generation Sequencing Core. […] Libraries were sequenced at an average depth of 15 million reads per sample.
The spliced read aligner STAR (Dobin et al., 2013) was used to align sequencing reads to the human hg19 genome. Gene-level read counts were obtained based on UCSC hg19 gene annotation. DESeq2 (Love et al., 2014) was used to calculate differential gene expression based on uniquely aligned reads, and p-values were adjusted for multiple hypothesis testing with the Benjamini-Hochberg method.

KEAP1-mutant NSCLC cells = test: Colony formation in soft agar, KEAP1-mutant NSCLC cells; details: 5 μM
Description: Based on its in situ activity (FIG. 6D and FIG. 12A, 12G) and selectivity (FIGS. 6A, 6B), BPK-29 was chosen for additional biological studies. […] Exogenous expression of […] the growth inhibition caused by BPK-29.

CRY1 protein content = CRY1 protein content by immunoblotting in H460 cells; details: 9 h
Procedure: FIG. 13A-FIG. 13E illustrate characterization of NR0B1 ligands in Keap1-mutant NSCLC cells. […] Top: Heat map depicting changes in gene expression between H460 cells expressing shNRF2, shNR0B1 or a control (shGFP) and those treated with vehicle (DMSO), BPK-29 or BPK-9 (30 μM, 12 h). Expression for each condition was first normalized to appropriate controls (shGFP or DMSO) and then normalized by row. Bottom: Overlap between gene sets regulated in BPK-29-treated vs shNR0B1 H460 cells. Gene set enrichment analysis (GSEA) was applied to all genes that were differentially expressed between shNR0B1-H460 cells and shGFP-H460 cells or between H460 cells treated with BPK-29 or DMSO. Genes were ranked based on their FDR. […] Gene expression changes for CRY1, DEPDC1, and CPLX2 were determined by qPCR and data represents mean values+SD (n=4-10). […] Gene expression changes for Cry1, DEPDC1, and CPLX2 were determined by qPCR and data represents mean values+SD (n=4-6). […] Protein expression was analyzed by immunoblotting. […] Top: H460 cells were treated with cycloheximide (100 μg/mL) for the indicated time points and NR0B1 protein content assessed by immunoblotting. […] NR0B1 protein content was determined following cycloheximide treatment and data were fit into a one-phase exponential decay model. […]

SMILES | gene expression changes (CRY1, DEPDC1, CPLX2) ([1]; 30 μM) | colony formation in soft agar (KEAP1-mutant NSCLC cells) | CRY1 protein content (CRY1 protein content) | expression of representative genes (CRY1, DEPDC1, CPLX2) by qPCR ([1]; KEAP1-mutant H460 cells, 25 μM) | expression of representative genes (Cry1, DEPDC1, CPLX2) by qPCR ([1]; KEAP1-mutant H2122 cells, 30 μM)
O=C(c1ccc(N2CCOCC2)cc1)N1CCC(CN(C(=O)CCl)c2cncnc2)CC1 [BPK-9, 2-chloro-N-((1-(4-morpholinobenzoyl)piperidin-4-yl)methyl)-N-(pyrimidin-5-yl)acetamide] | not observed | much less of an effect | not observed | – | –
O=C(c1ccc(N2CCOCC2)cc1)N1CCCC(N(Cc2ccccc2)C(=O)CCl)CC1 (centres unmarked) [BPK-29, N-benzyl-2-chloro-N-(1-(4-morpholinobenzoyl)azepan-4-yl)acetamide] | reductions in CRY1, DEPDC1, and CPLX2 | blocked colony formation | reduces CRY1 protein content; also recorded: substantial reduction in CRY1 protein content | alters the expression | alters the expression
